Entries after “also recorded” stand apart in the source; their conditions may differ. Structures can show the parent of a compound that is named as a salt. Where two headings read alike, the source gives them in different places.
Experiments:
[1] = test system: late passage prostate epithelial cells; type: cell-based; conditions: for increase of total cell number after 5 days: KSFM plus individual compound alone at 5 μM; for increase of total cell number after 5 days / cell proliferation when used together with A83-01: 1 μM, 0.2 μM; for cell proliferation when used together with A83-01: KSFM supplemented with A83-01 plus compound at 5 μM, 5 days
From the text: As described above, these include Rho kinase inhibitors (i.e., Rho-associated protein kinase inhibitors) such as Y-27632, SR 3677, GSK 429286 and Thiazovivin; PAK1 inhibitor IPA-3; and myosin II inhibitor (i.e., non-muscle myosin II (NM II) inhibitor) Blebbistatin.

[2] = test system: human telomerase reverse transcriptase (hTERT) expression in bronchial epithelial cells; assay: hTERT expression by quantitative real-time PCR in bronchial epithelial cells; type: cell-based; conditions: KSFM
Protocol: (§1) Total RNA was prepared using TRIzol® Plus RNA Purification Kit (Life Technologies, 12183-555) and PureLink® RNA Mini Kit (Life Technologies, 12183018A), following the manufacturer's instructions. One hundred nanogram total RNA was used for the determination of human telomerase reverse transcriptase (hTERT) expression using the TaqMan® RNA-to-CT™ 1-Step Kit (Life Technologies, 4392938), following the protocol provided by the supplier. hTERT primers and Taqman probe used were as follows: forward primer, 5′-[…]-3′ (SEQ ID NO:1), reverse primer, 5′-[…]-3′ (SEQ ID NO:2) and Taqman probe, 5′-[…]-3′ (SEQ ID NO:3).
(§2) In this example, hTERT expression in epithelial cells was assessed in the presence of an ALK5 inhibitor, a Rho kinase inhibitor (i.e., a Rho-associated protein kinase inhibitor), or both. Expression of hTERT gene was examined by quantitative real-time PCR in bronchial epithelial cells and prostate epithelial cells. The cells were treated with an ALK5 inhibitor, A83-01, or a Rho kinase inhibitor (i.e., a Rho-associated protein kinase inhibitor), Y-27632, or both inhibitors, at different passages in KSFM.

[3] = test system: human telomerase reverse transcriptase (hTERT) expression in prostate epithelial cells; assay: hTERT expression by quantitative real-time PCR in prostate epithelial cells; type: cell-based; conditions: KSFM
Protocol: as §1, §2
As shown in FIG. 6A and FIG. 6B, prostate epithelial cells at early passage (p2) expressed low level of hTERT, which quickly diminished at passage 3 and became non-detectable by passage 5.

[4] = test system: prostate epithelial cells; assay: Plating efficiency of prostate epithelial cells in KSFM; type: cell-based, human
From the text: (§3) In this example, epithelial cell plating efficiency, i.e., number of cells that efficiently attach to the cell culture surfaces, continue to divide and grow into colonies, was examined under various conditions.
(§4) However, those few cells that did attach continued to proliferate.
Many prostate epithelial cells attached to regular tissue culture surface in the presence of both A83-01 and Y-27632 at day 2 after plating.

[5] = test system: bronchial epithelial cells; assay: Plating efficiency of bronchial epithelial cells in KSFM; type: cell-based, human
From the text: as §3, §4
Many bronchial epithelial cells attached to regular tissue culture surface in the presence of both A83-01 and Y-27632 at day 2 after plating.

[6] = test system: prostate epithelial cells; assay: Growth (population doublings) of prostate epithelial cells; type: cell-based, human; conditions: KSFM; for total population doublings: serial culture (FIG. 14)
Protocol: (§5) Epithelial cells (prostate epithelial cells and bronchial epithelial cells) were plated at 3,000-10,000 viable cells/cm^2 in tissue culture vessels, using culture medium as indicated in Examples 2 to 5 and FIGS. 1 to 17, and incubated at 37° C. with 5% CO2. The medium was changed every 2 or 3 days. Cells were sub-cultured using standard trypsinization method when they were about 70-90% confluent. Total cell number was determined using the Countess II Automated Cell Counter (Life Technologies, AMQAX1000) following manufacturer's instructions.
(§6) A formula used for the calculation of population doublings (PD) is presented in Equation A: n=3.32*(log Y−log I)+X Equation A where n=the final PD number at end of a given subculture, Y=the cell yield at the time of harvesting, I=the cell number used as inoculum to begin that subculture, and X=the doubling level of the inoculum used to initiate the subculture being quantitated.
(§7) Prostate and bronchial epithelial cells were grown in KSFM in the presence of Rho kinase inhibitor (i.e., Rho-associated protein kinase inhibitor) Y-27632.
To examine the effects of additional in vitro and/or ex vivo growth conditions, prostate epithelial cells were grown in KSFM or PrEGM in the presence of media alone, ALK5 inhibitor A83-01, Rho kinase inhibitor (i.e., Rho-associated protein kinase inhibitor) Y-27632, or both (with or without collagen).

[7] = test system: bronchial epithelial cells; assay: Growth (population doublings) of bronchial epithelial cells; type: cell-based, human; conditions: KSFM; for total population doublings: serial culture (FIG. 15)
Protocol: as §5, §6, §7
Similar to the experiment above, bronchial epithelial cells were grown in KSFM in the presence of media alone, ALK5 inhibitor A83-01, Rho kinase inhibitor (i.e., Rho-associated protein kinase inhibitor) Y-27632, or both (with or without collagen).

[8] = test system: human foreskin keratinocytes (HFK) and human bronchial epithelial cells (HBEC); assay: Cell growth with increasing concentrations of isoproterenol; type: cell-based; conditions: added to KSFM plus 1 μM A83-01 and 5 μM Y-27632, six days
Protocol: In a further investigation, epithelial cell growth was assessed in the presence of a beta-adrenergic agonist (i.e., a beta-adrenergic receptor agonist). Human foreskin keratinocytes (HFK) and human bronchial epithelial cells (HBEC) were cultured in KSFM plus 1 μM A83-01 and 5 μM Y-27632, supplemented with increasing concentrations of isoproterenol (a beta-adrenergic receptor agonist that increases cytosolic cAMP levels). Cell numbers were counted after six days to calculate cell growth relative to control.

[9] = regular (uncoated) tissue culture surface
[10] = added together with A83-01, regular tissue culture surface
[11] = used alone, continuous use (FIG. 13)

CN(C)CCOc1cc(-c2cn[nH]c2)ccc1NC(=O)C1COc2ccccc2O1 (stereo not shown) [SR 3677, N-[2-[2-(Dimethylamino)ethoxy]-4-(1H-pyrazol-4-yl)phenyl-2,3-dihydro-1,4-benzodioxin-2-carboxamidedi hydrochloride]
increase of total cell number after 5 days [1]: slight increase of total cell numbers
cell proliferation when used together with A83-01 [1]: synergistic effect

CC1=C(C(=O)Nc2cc3cn[nH]c3cc2F)C(c2ccc(C(F)(F)F)cc2)CC(=O)N1 (stereo not shown) [GSK 429286, 4-[4-(Trifluoromethyl)phenyl]-N-(6-Fluoro-1H-indazol-5-yl)-2-methyl-6-oxo-1,4,5,6-tetrahydro-3-pyridinecarboxamide]
increase of total cell number after 5 days [1]: slight increase of total cell numbers
cell proliferation when used together with A83-01 [1]: synergistic effect

O=C(NC1CCOCC1)c1ccc(-c2cc(-c3c[nH]nc3-c3ccccn3)ccn2)cc1 [GW 788388, 4-[4-[3-(2-Pyridinyl)-1H-pyrazol-4-yl]-2-pyridinyl]-N-(tetrahydro-2H-pyran-4-yl)-benzamide]
increase of total cell number after 5 days [1]: pronounced increase of total cell number
cell proliferation when used together with A83-01 [1]: little extra increase

O=C(NCc1ccccc1)c1csc(Nc2ccncn2)n1 [Thiazovivin, N-Benzyl-[2-(pyrimidin-4-yl)amino]thiazole-4-carboxamide]
increase of total cell number after 5 days [1]: slight increase of total cell numbers
cell proliferation when used together with A83-01 [1]: synergistic effect

Cc1cccc(-c2nn(C(=S)Nc3ccccc3)cc2-c2ccnc3ccccc23)n1 [A83-01, 3-(6-Methyl-2-pyridinyl)-N-phenyl-4-(4-quinolinyl)-1H-pyrazole-1-carbothioamide]
hTERT expression ([2]; early passage (p3)): robustly induced hTERT expression
hTERT expression ([2]; late passage (p6)): sustained measurable hTERT expression
hTERT expression ([3]; early passage (p2)): quickly induced hTERT expression
hTERT expression ([3]; late passage (p5)): sustained measurable hTERT expression
plating efficiency [4, 9]: interfered with prostate epithelial cell plating efficiency
plating efficiency [5, 9]: interfered with bronchial epithelial cell plating efficiency
total population doublings [6]: also increased the total population doublings
total population doublings [7]: also increased the total population doublings
increase of total cell number after 5 days [1]: pronounced increase of total cell number; also recorded: significantly increased

Oc1ccc2ccccc2c1SSc1c(O)ccc2ccccc12 [IPA-3, 1,1′-Dithiodi-2-naphthol]
increase of total cell number after 5 days [1]: did not increase proliferation
cell proliferation when used together with A83-01 [1]: synergistically increased
cell death ([1]; highest concentration tested (5 μM)): nearly total cell death

C[C@@H](N)[C@H]1CC[C@H](C(=O)Nc2ccncc2)CC1.Cl.Cl [Y-27632, (R)-(+)-trans-4-(1-Aminoethyl)-N-(4-Pyridyl)cyclohexanecarboxamide dihydrochloride]
hTERT expression ([2]; early passage (p3)): slightly induced hTERT expression
hTERT expression ([2]; late passage (p6)): non-detectable
hTERT expression ([3]; early passage (p2)): induced hTERT expression
hTERT expression ([3]; late passage (p5)): non-detectable
plating efficiency [4, 10]: ameliorated the low plating efficiency
plating efficiency [5, 10]: ameliorated the low plating efficiency
population doubling reached shortly before senescence [6]: > 20 PD
total population doublings [6]: slightly increased the total population doublings
proliferation at late passage [6, 11]: did not promote the proliferation
total population doublings [7]: slightly increased the total population doublings
proliferation at late passage [7, 11]: did not promote the proliferation
increase of total cell number after 5 days ([1]; dihydrochloride): slight increase of total cell numbers; also recorded: slight increase of cell proliferation
cell proliferation when used together with A83-01 [1]: synergistically increased

Cc1cccc(-c2n[nH]cc2-c2ccc3ncccc3n2)n1 [RepSox, 2-(3-(6-Methylpyridine-2-yl)-1H-pyrazol-4-yl)-1,5-naphthyridine]
increase of total cell number after 5 days [1]: pronounced increase of total cell number
cell proliferation when used together with A83-01 [1]: little extra increase

CC(C)NCC(O)c1ccc(O)c(O)c1 (stereo not shown) [isoproterenol]
cell growth relative to control [8]: further increased epithelial cells growth

NC(=O)c1ccc(-c2nc(-c3ccc4c(c3)OCO4)c(-c3ccccn3)[nH]2)cc1 [SB 431542, 4-[4-(1,3-benzodioxol-5-yl)-5-(2-pyridinyl)-1H-imidazol-2-yl]benzamide]
increase of total cell number after 5 days [1]: pronounced increase of total cell number
cell proliferation when used together with A83-01 [1]: little extra increase

Cc1ccc2c(c1)C(=O)C1(O)CCN(c3ccccc3)C1=N2 (racemic) [Blebbistatin, (±)-1,2,3,3a-Tetrahydro-3a-hydroxy-6-methyl-1-phenyl-4H-pyrrolo[2,3-b]quinolin-4-one]
increase of total cell number after 5 days [1]: did not increase proliferation
cell proliferation when used together with A83-01 [1]: synergistically increased
